{"source": "patent US7626044B2", "about": "“Triptolide derivatives and their uses” (priority 2002, dated 2009)", "key": {"[1]": {"system": "Sac-stimulated lymphocytes", "assay": "Cytokine production from Sac-stimulated lymphocytes (ELISA)", "format": "cell-based, mouse", "settings": "for IFN-γ production by lymphocytes stimulated with Sac, Mean Value: without drug 1302.6; for IL-12 production by lymphocytes stimulated with Sac: without drug 980; for IL-6 production by lymphocytes stimulated with Sac: without drug 1528; for IL-10 production by lymphocytes stimulated with Sac: without drug 2306; for TNF-α production by lymphocytes stimulated with Sac: without drug 4062", "method": "Mice were sacrificed by cervical dislocation, and spleens were collected under sterile conditions then teased through a nylon mesh. Erythrocytes were lysed. Cells were washed and resuspended at 5×10^6/ml in RPMI-1640 media with 10% FBS.\n1 ml of spleen cells were treated with or without ConA (5 μg/ml) or Sac (1:10000) and in the presence or absence of drugs in a final volume of 2 ml.\nAfter 24 h culture at 37° C., 5% CO2 in a humidified incubator, cell-free supernatant was collected and frozen at −20° C. for ELISA.\nTMB was taken as the enzyme substrate. The absorbance was measured at 450/570 nm by BioRad microplate reader. […]"}, "[2]": {"system": "DNFB-induced mouse DTH response", "assay": "DNFB-induced mouse delayed type hypersensitivity response (DTH)", "format": "in vivo", "settings": "for Ear swelling X ± SD: control 23.3 ± 4.3", "method": "Female Balb/c mice (age of 6-8 wk) were randomly divided into groups and immunized with 20 μl 0.5% DNFB solution in absolute acetone-olive oil (4:1) on each hind foot on day 0 and 1;\n7-9 days after the initial immunization, mice were boosted with 10 μl 0.4% DNFB on both sides of the left ear, whereas the right ear was treated with vehicle alone;\nCompounds were administered intraperitoneally (i.p.) or orally (p.o.) to the mice 1 h before DNFB booster immunization and 12 h later.\nEar swelling and other indexes were assessed 24-48 h after booster immunization.\nNote: Female ICR mice (age of 6-8 wk) were immunized with 0.7% DNFB solution and boosted with 0.6% DNFB solution."}, "[3]": {"settings": "Table 5, i.p., dosage 1 mg/kg/d for 5 days, control 20"}}, "data": [{"smiles": "CC(C)[C@]12O[C@H]1[C@@H]1O[C@]13[C@]1(O[C@H]1C[C@@]1(O)C4=C(CC[C@]31C)C(=O)OC4)[C@@H]2O", "note": "[LLDT-8, (5R)-5-hydroxytriptolide]", "values": [{"measurement": "IFN-γ production by lymphocytes stimulated with Sac, Mean Value", "setting": "[1]; 0.01 nM", "value": 809.7, "unit": "pg/mL"}, {"measurement": "IFN-γ production by lymphocytes stimulated with Sac, Mean Value", "setting": "[1]; 0.1 nM", "value": 850.5, "unit": "pg/mL"}, {"measurement": "IL-12 production by lymphocytes stimulated with Sac", "setting": "[1]; 0.3 nM", "value": 917, "unit": "pg/mL"}, {"measurement": "IL-6 production by lymphocytes stimulated with Sac", "setting": "[1]; 0.3 nM", "value": 1585, "unit": "pg/mL"}, {"measurement": "IL-10 production by lymphocytes stimulated with Sac", "setting": "[1]; 0.3 nM", "value": 2866, "unit": "pg/mL"}, {"measurement": "TNF-α production by lymphocytes stimulated with Sac", "setting": "[1]; 0.3 nM", "value": 4686, "unit": "pg/mL"}, {"measurement": "IFN-γ production by lymphocytes stimulated with Sac, Mean Value", "setting": "[1]; 1 nM", "value": 810.3, "unit": "pg/mL"}, {"measurement": "IL-12 production by lymphocytes stimulated with Sac", "setting": "[1]; 3 nM", "value": 939, "unit": "pg/mL"}, {"measurement": "IL-6 production by lymphocytes stimulated with Sac", "setting": "[1]; 3 nM", "value": 1403, "unit": "pg/mL"}, {"measurement": "IL-10 production by lymphocytes stimulated with Sac", "setting": "[1]; 3 nM", "value": 2816, "unit": "pg/mL"}, {"measurement": "TNF-α production by lymphocytes stimulated with Sac", "setting": "[1]; 3 nM", "value": 3899, "unit": "pg/mL"}, {"measurement": "IFN-γ production by lymphocytes stimulated with Sac, Mean Value", "setting": "[1]; 10 nM", "value": 465.3, "unit": "pg/mL"}, {"measurement": "IL-12 production by lymphocytes stimulated with Sac", "setting": "[1]; 30 nM", "value": 602, "unit": "pg/mL"}, {"measurement": "IL-6 production by lymphocytes stimulated with Sac", "setting": "[1]; 30 nM", "value": 989, "unit": "pg/mL"}, {"measurement": "IL-10 production by lymphocytes stimulated with Sac", "setting": "[1]; 30 nM", "value": 3262, "unit": "pg/mL"}, {"measurement": "TNF-α production by lymphocytes stimulated with Sac", "setting": "[1]; 30 nM", "value": 3649, "unit": "pg/mL"}, {"measurement": "IFN-γ production by lymphocytes stimulated with Sac, Mean Value", "setting": "[1]; 100 nM", "value": 227.4, "unit": "pg/mL"}, {"measurement": "Body weight after i.p.", "setting": "[2]; [3]", "value": "21/21 g"}, {"measurement": "Body weight before i.p.", "setting": "[2]; [3]", "value": "21/21 g"}, {"measurement": "Right ear", "setting": "[2]; Table 5, i.p., dosage 1 mg/kg/d for 5 days, control 31.2", "value": 35.5, "unit": "mg"}, {"measurement": "Ear swelling", "setting": "[2]; Table 5, i.p., dosage 1 mg/kg/d for 5 days, control 32.6", "value": 21.4, "unit": "mg"}, {"measurement": "Left ear", "setting": "[2]; Table 5, i.p., dosage 1 mg/kg/d for 5 days, control 63.8", "value": 56.9, "unit": "mg"}, {"measurement": "Spleen", "setting": "[2]; Table 5, i.p., dosage 1 mg/kg/d for 5 days, control 142.4", "value": 140.3, "unit": "mg"}, {"measurement": "Right ear", "setting": "[2]; Table 6, i.p. once a day for 2 days, ICR mice, dosage 0.04 mg/kg, control 30.0", "value": 29.4, "unit": "mg"}, {"measurement": "Ear swelling", "setting": "[2]; Table 6, i.p. once a day for 2 days, ICR mice, dosage 0.04 mg/kg, control 31.1", "value": 26.1, "unit": "mg"}, {"measurement": "Left ear", "setting": "[2]; Table 6, i.p. once a day for 2 days, ICR mice, dosage 0.04 mg/kg, control 61.1", "value": 55.5, "unit": "mg"}, {"measurement": "Right ear", "setting": "[2]; Table 6, i.p. once a day for 2 days, ICR mice, dosage 0.2 mg/kg, control 30.0", "value": 37.4, "unit": "mg"}, {"measurement": "Ear swelling", "setting": "[2]; Table 6, i.p. once a day for 2 days, ICR mice, dosage 0.2 mg/kg, control 31.1", "value": 17.9, "unit": "mg"}, {"measurement": "Left ear", "setting": "[2]; Table 6, i.p. once a day for 2 days, ICR mice, dosage 0.2 mg/kg, control 61.1", "value": 55.3, "unit": "mg"}, {"measurement": "Right ear", "setting": "[2]; Table 6, i.p. once a day for 2 days, ICR mice, dosage 1 mg/kg, control 30.0", "value": 33.0, "unit": "mg"}, {"measurement": "Ear swelling", "setting": "[2]; Table 6, i.p. once a day for 2 days, ICR mice, dosage 1 mg/kg, control 31.1", "value": 23.4, "unit": "mg"}, {"measurement": "Left ear", "setting": "[2]; Table 6, i.p. once a day for 2 days, ICR mice, dosage 1 mg/kg, control 61.1", "value": 56.4, "unit": "mg"}, {"measurement": "Ear swelling X ± SD", "setting": "[2]; Table 7, i.p. at low dosages, Balb/c mice, dosage 2 (mg/kg)", "value": "16.8 ± 5.4", "unit": "mg"}, {"measurement": "Right ear", "setting": "[2]; Table 7, i.p. at low dosages, Balb/c mice, dosage 2 (mg/kg), control 26.3", "value": 27.5, "unit": "mg"}, {"measurement": "Left ear", "setting": "[2]; Table 7, i.p. at low dosages, Balb/c mice, dosage 2 (mg/kg), control 49.6", "value": 44.3, "unit": "mg"}, {"measurement": "Ear swelling X ± SD", "setting": "[2]; Table 7, i.p. at low dosages, Balb/c mice, dosage 8 (mg/kg)", "value": "16.6 ± 4.1", "unit": "mg"}, {"measurement": "Right ear", "setting": "[2]; Table 7, i.p. at low dosages, Balb/c mice, dosage 8 (mg/kg), control 26.3", "value": 29.7, "unit": "mg"}, {"measurement": "Left ear", "setting": "[2]; Table 7, i.p. at low dosages, Balb/c mice, dosage 8 (mg/kg), control 49.6", "value": 46.3, "unit": "mg"}, {"measurement": "Ear swelling X ± SD", "setting": "[2]; Table 7, i.p. at low dosages, Balb/c mice, dosage 40 (mg/kg)", "value": "16.9 ± 2.7", "unit": "mg"}, {"measurement": "Right ear", "setting": "[2]; Table 7, i.p. at low dosages, Balb/c mice, dosage 40 (mg/kg), control 26.3", "value": 25.7, "unit": "mg"}, {"measurement": "Left ear", "setting": "[2]; Table 7, i.p. at low dosages, Balb/c mice, dosage 40 (mg/kg), control 49.6", "value": 42.6, "unit": "mg"}, {"measurement": "Ear swelling X ± SD", "setting": "[2]; Table 7, i.p. at low dosages, Balb/c mice, dosage 200 (mg/kg)", "value": "17.1 ± 5.1", "unit": "mg"}, {"measurement": "Right ear", "setting": "[2]; Table 7, i.p. at low dosages, Balb/c mice, dosage 200 (mg/kg), control 26.3", "value": 27.2, "unit": "mg"}]}]}
